How the values were obtained:
CHO cells = test: Dual label cell function assay, intracellular calcium in CHO cells (Fluo-3 / Syto-17, on-chip); type: cell-based; settings: ionomycin 0, 1 μM, 3 μM, 10 μM and 30 μM, FIGS. 11A-11F
Protocol: (§1) Cell Culture—Cells (CHO or THP-1) were obtained from the ATCC. THP-1 cells were cultured in RPMI 1640 media containing 10% fetal bovine serum (FBS), sodium pyruvate (1 mM), L-glutamine (2 mM), Penicillin-G/Streptomycin (100 u/ml, 100 μ/ml), beta-mercaptoethanol (50 μM), HEPES buffer, pH 7.4 (10 mM). CHO cells were cultured in Ham's F12 media containing 10% FBS, L-glutamine (2 mM), and Penicillin-G/Streptomycin (100 u/ml/100 μg/ml). The cells were maintained by splitting every 3-4 days.
(§2) Dye Loading of Cells—The cells were loaded with Fluo-3-AM dye (Molecular Probes) using a 4 μM solution of the dye in Hank's Balanced Salt Solution (HBSS) containing calcium and magnesium but lacking phenol red. Added to the HBSS were 1% FBS, 2.5 mM probenecid, 30 mM HEPES, pH 7.0, and 0.05% pluronic acid. The cells were incubated in the dye containing solution at approximately, 5-9×10^6 cells/5 ml for 50 minutes in a CO2 incubator at 37° C. […]
(§3) The fluorescence of the cells was measured using two PMT's on a Nikon inverted microscope and fluorescein/texas red filter sets (Fluo-3: Ex. max=506, Em. max=526 & Syto-17: Ex. max=621, Em. max=634 nm) for two color analysis. Using the combination of Fluo-3 and Syto-17 dyes, there was no interference by fluorescence quenching of one dye's emission by the other dye. […] Syto-17 was therefore an indicator of cell density in the reading area. […]

[1] = system: P2Y receptor on THP-1 cells; test: Dual label cell function assay, calcium response of THP-1 cells to UTP (Fluo-3 / Syto-17, on-chip); type: cell-based
Protocol: as §1, §2, §3

SMILES | slope of the best fit line for the scatter plots (ratio of calcium modulated fluorescence to cell number; measure of intracellular calcium concentration) (CHO cells) | time to peak of calcium response after sample introduction ([1]; 10 μM UTP, FIG. 15) | ratio of the Fluo-3 and Syto-17 fluorescence (the slope determined by linear regression) ([1]; 30 μM UTP versus no UTP, FIG. 13)
C[C@H](CCC(=O)O)C[C@H](C)C[C@H](C)C(=O)/C=C(\O)[C@H](C)C[C@H](C)C/C=C/[C@@H](C)[C@@H](O)[C@@H](C)[C@@H](O)C[C@@H]1CC[C@@](C)([C@H]2CC[C@@](C)([C@@H](C)O)O2)O1 [ionomycin] | increases with increasing ionomycin concentration | – | –
O=c1ccn([C@@H]2O[C@H](COP(=O)(O)OP(=O)(O)OP(=O)(O)O)[C@@H](O)[C@H]2O)c(=O)[nH]1 [UTP] | – | ≤ 5 s | changes with treatment with UTP
